Reference: patent publication US11584744B2 (UNIVERSITY OF WASHINGTON, priority 2017, dated 2023)
≈ marks a conversion by molar mass, not a printed value. Read-outs that look alike come from different tables or passages of the source.

What was measured:
[1] = system: S. pneumoniae (ATCC 49619); assay: MIC susceptibility testing; format: cell-based; details: Streptococcus pneumoniae, ATCC49619, 18 h; medium with 3% laked horse blood; read-out: S. pneumoniae (ATCC 49619) MIC
[2] = system: S. aureus MSSA (ATCC 19636); assay: MIC susceptibility testing; format: cell-based; details: Staphylococcus aureus; read-out: S. aureus MSSA (ATCC 19636) MIC
Method in brief: (§1)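 CLSI broth microdilution in triplicate, 5×10^5 CFU/mL final, ≤0.5% DMSO; MHB for S. aureus, CA-MHB for E. coli and E. faecium, CA-MHB plus 3% laked horse blood for S. pyogenes (5% CO2).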

[3] = system: P. aeruginosa (ATCC 27853); assay: MIC susceptibility testing; format: cell-based; details: Pseudomonas aeruginosa, ATCC27853
E. coli (ATCC 25922) = assay: MIC susceptibility testing; format: cell-based; details: Escherichia coli, ATCC25922
Method in brief: as §1

[4] = system: S. aureus VISA (ATCC 700699); assay: MIC susceptibility testing; format: cell-based; details: Staphylococcus aureus; read-out: S. aureus VISA (ATCC 700699) MIC
Method in brief: as §1

[5] = mice infected with T. brucei, 50 mg/kg PO twice-per-day for 10 days; previous publication; cited from earlier work
S. aureus (ATCC 29213) = assay: MBC determinations (with MIC); format: cell-based; details: Staphylococcus aureus, ATCC29213, S. aureus (ATCC 29213); for MIC: MBC experiment (Table 5), read-out: MIC; for MBC: concentration killing 99.9% of inoculum, read-out: MBC
Description: Maximum DMSO concentrations were 0.5%. […] Each experiment's inoculum was serially diluted and plated on TSA to count competent cells. Cultures were incubated at 37° C. for at least 20 h and plated on TSA for CFU determination.
MIC/MBC: Measurements of minimum bactericidal concentrations (MBCs) were done with the S. aureus strain ATCC 29213 (Table 5).

MetRS (T. brucei) = molecular target: T1, MetRS (T. brucei) (Trypanosoma brucei brucei, UniProt Q38C91); assay: MetRS (T. brucei) enzyme inhibition; format: biochemical
T1 sequence (Q38C91 1-773): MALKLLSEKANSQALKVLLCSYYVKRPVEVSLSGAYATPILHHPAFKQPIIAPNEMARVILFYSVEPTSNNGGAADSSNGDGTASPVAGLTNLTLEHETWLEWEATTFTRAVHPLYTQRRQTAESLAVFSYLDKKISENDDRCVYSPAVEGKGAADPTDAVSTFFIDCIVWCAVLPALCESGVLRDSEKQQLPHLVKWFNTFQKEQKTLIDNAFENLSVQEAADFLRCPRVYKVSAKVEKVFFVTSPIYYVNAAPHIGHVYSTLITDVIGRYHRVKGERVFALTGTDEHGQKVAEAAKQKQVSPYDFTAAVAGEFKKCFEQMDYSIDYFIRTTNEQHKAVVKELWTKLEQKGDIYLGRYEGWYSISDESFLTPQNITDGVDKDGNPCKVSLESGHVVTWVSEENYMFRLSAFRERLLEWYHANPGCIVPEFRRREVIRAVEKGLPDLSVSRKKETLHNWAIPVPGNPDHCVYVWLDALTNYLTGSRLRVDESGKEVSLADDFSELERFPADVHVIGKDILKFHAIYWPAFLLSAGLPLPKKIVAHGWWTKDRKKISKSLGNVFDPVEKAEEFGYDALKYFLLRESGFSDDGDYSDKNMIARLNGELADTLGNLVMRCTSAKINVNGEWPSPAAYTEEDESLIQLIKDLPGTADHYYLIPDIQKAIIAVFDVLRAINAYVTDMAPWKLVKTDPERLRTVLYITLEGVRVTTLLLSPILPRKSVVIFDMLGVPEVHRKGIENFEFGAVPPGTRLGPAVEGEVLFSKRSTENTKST

MetRS (C. parvum) = MetRS (C. parvum) (Cryptosporidium parvum, UniProt Q5CVN0); assay: MetRS (C. parvum) enzyme inhibition; format: biochemical; details: read-out: (C) MetRS (C. parvum) IC50
Sequence of MetRS (C. parvum) (Q5CVN0 entry or part of it): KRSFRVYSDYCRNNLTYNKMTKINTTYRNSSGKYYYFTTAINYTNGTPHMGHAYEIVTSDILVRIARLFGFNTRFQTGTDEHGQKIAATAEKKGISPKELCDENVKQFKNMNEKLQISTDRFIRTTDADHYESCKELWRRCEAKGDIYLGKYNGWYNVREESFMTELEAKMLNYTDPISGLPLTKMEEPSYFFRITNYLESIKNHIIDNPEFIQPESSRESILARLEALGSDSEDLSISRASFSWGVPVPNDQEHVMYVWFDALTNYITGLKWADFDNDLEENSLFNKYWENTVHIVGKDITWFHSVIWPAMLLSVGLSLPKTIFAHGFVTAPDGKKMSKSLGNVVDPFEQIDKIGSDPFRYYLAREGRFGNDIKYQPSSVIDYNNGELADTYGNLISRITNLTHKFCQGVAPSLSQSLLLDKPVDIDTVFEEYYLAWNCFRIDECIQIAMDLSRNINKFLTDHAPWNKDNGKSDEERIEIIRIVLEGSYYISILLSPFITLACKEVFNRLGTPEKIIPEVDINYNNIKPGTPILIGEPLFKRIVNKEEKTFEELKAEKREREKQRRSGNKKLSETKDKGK

T. brucei = T. brucei growth inhibition; format: cell-based, Trypanosoma brucei; details: read-out: (D) T. brucei EC50
[6] = system: G. lamblia (ATCC GL50803); assay: G. lamblia growth inhibition; format: cell-based; details: Giardia duodenalis, read-out: (K) G. lamblia (ATCC GL50803) EC50
Cryptosporidium parvum = assay: C. parvum parasite burden model, gamma-IFN knockout mice, bioluminescence readout; format: in vivo
Description: FIG. 4 illustrates efficacy of MetRS inhibitors in a parasite burden model of Cryptosporidium parvum infection. About 1,000-fold reduction of parasite burden was observed after treatment by 2093.
Several compounds of the disclosure were also evaluated in vivo in C. parvum infection model and in acute T. cruzi infection model. Immunosuppressed mice (NOD SCID Gamma) with Cryptosporidium infection were treated for 5 days with test compounds. Cryptosporidium oocysts were quantified in stool by PCR. […] In FIG. 4, gamma-IFN knockout mice were used and, similarly, treated for 5 days with the test compound 2093. […] With respect to the T. cruzi, an efficacy model was employed in which the infection was monitored using bioluminescent T. cruz. With vehicle treatment, all mice died by day 14 post-infection.

C. parvum = C. parvum growth inhibition; format: cell-based, Cryptosporidium parvum; details: read-out: (J) C. parvum EC50

Compound	MIC [1]	MIC [2]	MIC [3]	MIC (E. coli (ATCC 25922))	MIC [4]	effects on weight, grooming, or body condition [5]	MIC (S. aureus (ATCC 29213))	MBC (S. aureus (ATCC 29213))	IC50 (MetRS (T. brucei))	IC50 (MetRS (C. parvum))	EC50 (T. brucei)	EC50 [6]	reduction of parasite burden (Cryptosporidium parvum; FIG. 4)	drop in fecal parasites (Cryptosporidium parvum; gamma-IFN knockout mice, treated 5 days, bioluminescence)	EC50 (C. parvum; Cryptosporidium parvum)	EC50 (C. parvum)	EC50 (T. brucei; Trypanosoma brucei)
Fc1ccc2nc(NCCCNCc3cc(Cl)cc(Cl)c3)[nH]c2n1 [Compound 1614, [(3,5-dichlorophenyl)methyl][3-({5-fluoro-3H-imidazo[4,5-b]pyridin-2-yl}amino)propyl]amine]	> 10 µg/mL	2.5 µg/mL (≈ 6.79 µM)	> 10 µg/mL	> 10 µg/mL	10 µg/mL (≈ 27.2 µM)	no deleterious effects on weight, grooming, or body condition	–	–	–	–	–	–	–	–	–	–	–
Fc1ccc2nc(NCCCN[C@@H]3CCNc4c(Cl)cc(Cl)cc43)[nH]c2n1 [Compound 1717, (4R)-6,8-dichloro—N-[3-({5-fluoro-3H-imidazo[4,5-b]pyridin-2-yl}amino)propyl]-1,2,3,4-tetrahydroquinolin-4-amine, reference compound]	> 20 µg/mL	0.078 µg/mL (≈ 0.191 µM)	> 10 µg/mL	> 10 µg/mL	0.156 µg/mL (≈ 0.381 µM)	no deleterious effects on weight, grooming, or body condition	0.156 µg/mL (≈ 0.381 µM)	5 µg/mL (≈ 12.2 µM)	–	–	–	–	–	–	–	–	–
CCn1c(Cc2ccc(Cl)cc2Cl)cn(Cc2nc3nc(F)ccc3[nH]2)c1=O [Compound 2062, 4-[(2,4-dichlorophenyl)methyl]-3-ethyl-1-({5-fluoro-1H-imidazo[4,5-b]pyridin-2-yl}methyl)-2,3-dihydro-1H-imidazol-2-one]	–	–	–	–	–	–	–	–	< 40 nM	< 40 nM	3.48 nM	–	–	–	–	–	–
CCn1c(Cc2ccc(OC)cc2Cl)cn(Cc2nc3nc(Cl)ccc3[nH]2)c1=O [Compound 2093, 1-({5-chloro-1H-imidazo[4,5-b]pyridin-2-yl}methyl)-4-[(2-chloro-4-methoxyphenyl)methyl]-3-ethyl-2,3-dihydro-1H-imidazol-2-one]	> 20 µg/mL	0.313 µg/mL (≈ 0.724 µM)	–	–	0.313 µg/mL (≈ 0.724 µM)	–	0.078 µg/mL (≈ 0.18 µM)	1.25 µg/mL (≈ 2.89 µM)	< 40 nM	< 40 nM	–	10 nM	About 1,000 fold	> 4 log	38 nM	33 nM	–
CCn1c(Cc2ccc(OC)cc2Cl)cn(Cc2nc3nc(F)ccc3[nH]2)c1=O [Compound 2114, 4-[(2-chloro-4-methoxyphenyl)methyl]-3-ethyl-1-({5-fluoro-1H-imidazo[4,5-b]pyridin-2-yl}methyl)-2,3-dihydro-1H-imidazol-2-one]	–	–	–	–	–	–	–	–	< 40 nM	< 40 nM	–	–	–	–	53 nM	–	1.4 nM
COc1cc(Cl)c(-c2cccc3nc(Cc4nc5nc(Cl)ccc5[nH]4)cn23)cc1OC [Compound 2144, 2-({5-chloro-1H-imidazo[4,5-b]pyridin-2-yl}methyl)-5-(2-chloro-4,5-dimethoxyphenyl)imidazo[1,2-a]pyridine]	> 20 µg/mL	0.078 µg/mL (≈ 0.172 µM)	–	–	0.039 µg/mL (≈ 0.0858 µM)	–	0.01 µg/mL (≈ 0.022 µM)	0.313 µg/mL (≈ 0.689 µM)	< 40 nM	40.9 nM	–	–	–	–	> 2000 nM	–	–
CC(=O)NC[C@H]1CN(c2ccc(N3CCOCC3)c(F)c2)C(=O)O1 [LNZ, linezolid]	1.25 µg/mL (≈ 3.71 µM)	1.25 µg/mL (≈ 3.71 µM)	–	–	1.25 µg/mL (≈ 3.71 µM)	–	2.5 µg/mL (≈ 7.41 µM)	160 µg/mL (≈ 474 µM)	–	–	–	–	–	–	–	–	–
